Data as given in patent publication EP2910557A1, “Enantiopure tetrasubstituted pyrrolidines as scaffolds for proteasome inhibitors and medicinal applications thereof” (Ikerchem, S.L., priority 2014, dated 2015).

Target: T1, Human erythrocyte 20S proteasome (Homo sapiens, UniProt P28074)
T1 construct: Enzyme: Human erythrocyte 20S proteasome; from tissue; host or cells: human erythrocytes
Assay: In vitro enzymatic assay of proteasome inhibitory activity (Suc-Leu-Leu-Val-Tyr-AMC substrate)
Assay type: biochemical
Conditions: for inhibition at 1 µM: Concentration 1000 nM; for IC50: human erythrocyte 20S proteasome, 10 µM Suc-Leu-Leu-Val-Tyr-AMC, 37°C; for inhibition at 0.5 µM: Concentration 500 nM
Procedure: Example 20: In vitro enzymatic assay of proteasome inhibitory activity.
Substrate: Suc-Leu-Leu-Val-Tyr-AMC
Assay buffer: 250 mM HEPES, pH 7.5, 0.5 mM EDTA, 0.03% SDS, 0.05% Igepal CA-630.
Enzyme: Human erythrocyte 20S proteasome
In vitro proteasome inhibitory activity of the compounds of the invention is evaluated by spectrofluorimetric quantitation of AMC. Stock solutions of compounds of the invention are prepared in dimethyl sulphoxide (DMSO). Test compound and/or vehicle is preincubated with […] enzyme (human erythrocyte 20S proteasome) in modified HEPES buffer pH 7.5 and 1% final concentration of DMSO for 15 minutes at 37°C. The reaction is initiated by addition of 10 µM Suc-Leu-Leu-Val-Tyr-AMC for another 30 minutes incubation period at 37°C. Determination of the release of AMC is read spectrophotometrically (excitation, 380 nm; emission, 460 nm). IC50 values are determined by a non-linear, least squares regression analysis using MathlQTM (ID Business Solutions Ltd., UK).

SMILES | inhibition at 1 µM [%] | IC50 [nM] | inhibition at 0.1 µM (Concentration 100 nM) [%] | inhibition at 0.5 µM [%] | inhibition at 0.05 µM (Concentration 50 nM) [%]
CC(C)C[C@H](NC(=O)[C@H]1N[C@@H](c2ccccc2)[C@H]2C(=O)N(C)C(=O)[C@H]21)B(O)O [Example 18, (R)-3-methyl-1-((1S,3R,3aS,6aR)-5-methyl-4,6-dioxo-3-phenyloctahydropyrrolo[3,4-c]pyrrole-1-carboxamido)butylboronic acid] | 53 | 920 | – | – | –
CC(C)C[C@H](NC(=O)[C@@H]1N[C@H](c2ccccc2)[C@@H]2C(=O)N(C)C(=O)[C@@H]21)B(O)O [Example 19, (R)-3-methyl-1-((1R,3S,3aR,6aS)-5-methyl-4,6-dioxo-3-phenyloctahydropyrrolo[3,4-c]pyrrole-1-carboxamido)butylboronic acid] | – | 46 | 68 | – | –
CC(C)C[C@H](NC(=O)[C@@H]1N[C@H](c2cccnc2)[C@@H]([N+](=O)[O-])[C@@H]1c1ccccc1)B(O)O [Example 15, (R)-3-methyl-1-((2R,3R,4S,5R)-4-nitro-3-phenyl-5-(pyridin-3-yl)pyrrolidine-2-carboxamido)butylboronic acid] | – | 100 | – | 72 | –
CC(C)C[C@H](NC(=O)[C@@H]1N[C@H](c2ccccc2)[C@@H]([N+](=O)[O-])[C@@H]1c1ccc([N+](=O)[O-])cc1)B(O)O [Example 8, (R)-3-methyl-1-((2R,3R,4S,5R)-4-nitro-3-(4-nitrophenyl)-5-phenylpyrrolidine-2-carboxamido)butylboronic acid] | – | 150 | – | 69 | –
COC(=O)[C@H]1[C@H](C(=O)OC)[C@H](c2ccccc2)N[C@@H]1C(=O)N[C@@H](CC(C)C)B(O)O [Example 17, (R)-1-((2S,3S,4S,5R)-3,4-bis(methoxycarbonyl)-5-phenylpyrrolidine-2-carboxamido)-3-methylbutylboronic acid] | – | – | – | 20 | –
Cc1ccc([C@H]2[C@H]([N+](=O)[O-])[C@@H](c3ccccc3)N[C@H]2C(=O)N[C@@H](CC(C)C)B(O)O)cc1 [Example 5, (R)-3-methyl-1-((2R,3R,4S,5R)-4-nitro-5-phenyl-3-p-tolylpyrrolidine-2-carboxamido)butylboronic acid] | – | 78 | – | 77 | –

Second part, the compound after the results:

inhibition at 1 µM [%] | IC50 [nM] | inhibition at 0.1 µM (Concentration 100 nM) [%] | inhibition at 0.5 µM [%] | inhibition at 0.05 µM (Concentration 50 nM) [%] | SMILES
– | 39 | – | – | 54 | CC(C)C[C@H](NC(=O)[C@@H]1N[C@H](c2cccc3ccccc23)[C@@H]([N+](=O)[O-])[C@@H]1c1ccccc1)B(O)O [Example 13, (R)-3-methyl-1-((2R,3R,4S,5R)-5-(naphthalen-1-yl)-4-nitro-3-phenylpyrrolidine-2-carboxamido)butylboronic acid]
– | – | – | 33 | – | CC(C)C[C@H](NC(=O)[C@@H]1N[C@H](c2cccc3ccccc23)[C@H]([N+](=O)[O-])[C@H]1c1ccccc1)B(O)O [Example 16, (R)-3-methyl-1-((2R,3S,4R,5R)-5-(naphthalen-1-yl)-4-nitro-3-phenylpyrrolidine-2-carboxamido)butylboronic acid]
70 | 430 | – | – | – | CC(C)C[C@H](NC(=O)[C@H]1N[C@@H](c2ccccc2)[C@H]([N+](=O)[O-])[C@H]1c1ccccc1)B(O)O [Example 2, (R)-3-methyl-1-((2S,3S,4R,5S)-4-nitro-3,5-diphenylpyrrolidine-2-carboxamido)butylboronic acid]
– | 150 | – | 69 | – | CC(C)C[C@H](NC(=O)[C@@H]1N[C@H](c2ccccc2)[C@@H]([N+](=O)[O-])[C@@H]1c1ccc2ccccc2c1)B(O)O [Example 9, (R)-3-methyl-1-((2R,3R,4S,5R)-3-(naphthalen-2-yl)-4-nitro-5-phenylpyrrolidine-2-carboxamido)butylboronic acid]
